Columns and labels:
CYP2C19 = molecular target: T1, CYP2C19 (Homo sapiens, UniProt P33261); experiment: Inhibitory effect on CYP coenzyme activity, human liver microsomes; type: in vitro ADME; conditions: 10 μM compound, human liver microsomes 0.25 mg/mL, substrate S-mephenytoin, 15 minutes
T1 construct: human liver microsomes (0.25 mg/mL); from tissue; host or cells: human liver microsomes
Description: (§1) The inhibitory effects of the compounds prepared according to Examples 1 to 57 on CYP coenzyme activity were identified. Specifically, human liver microsomes (0.25 mg/mL), a 0.1 M phosphate buffer solution (pH 7.4), a substrate drug cocktail of five types of drug metabolism enzymes (50 μM phenacetin, 10 μM diclofenac, 100 μM S-mephenytoin, 5 μM dextromethorphan, and 2.5 μM midazolam), and the compound at a concentration of 0 μM or 10 μM were mixed and pre-cultured at 37° C. for 5 minutes, and then further cultured at 37° C. for 15 minutes together with an NADPH generation system solution added thereto. Thereafter, the reaction was terminated by adding an acetonitrile solution containing an internal standard material (terfenadine) and centrifuged for 5 minutes (14,000 rpm, 4° C.), and then a supernatant was injected into an LC-MS/MS system for simultaneous analysis of metabolites of the substrate drugs to thereby evaluate the inhibitory effects on drug metabolism.
(§2) Metabolites of each CYP coenzyme indicator drug generated through the reaction were analyzed using the Shimadzu Nexera XR system and TSQ Vantage (Thermo). In an HPLC column, Kinetex C18 (2.1 mm×100 mm, 2.6 μm, particle size; Phenomenex, USA) was used, and mobile phases were (A) distilled water containing 0.1% formic acid and (B) acetonitrile containing 0.1% formic acid, and a gradient program shown in Table 3 was applied thereto.
(§3) The generated metabolites were quantified using a multiple reaction monitoring (MRM) quantification mode, and Xcalibur (version 1.6.1) was used for data analysis. In order to express inhibitory effects of the novel compound prepared according to the examples of the present invention on CYP coenzyme activity, CYP coenzyme activities (%) with respect to the control group not treated with the compound are shown in Table 4 below.

CYP1A2 = molecular target: T2, CYP1A2 (Homo sapiens, UniProt P05177); experiment: as above; type: in vitro ADME; conditions: 10 μM compound, human liver microsomes 0.25 mg/mL, substrate phenacetin, 15 minutes
T2 construct: human liver microsomes (0.25 mg/mL); from tissue; host or cells: human liver microsomes
T2 sequence (P05177 1-516): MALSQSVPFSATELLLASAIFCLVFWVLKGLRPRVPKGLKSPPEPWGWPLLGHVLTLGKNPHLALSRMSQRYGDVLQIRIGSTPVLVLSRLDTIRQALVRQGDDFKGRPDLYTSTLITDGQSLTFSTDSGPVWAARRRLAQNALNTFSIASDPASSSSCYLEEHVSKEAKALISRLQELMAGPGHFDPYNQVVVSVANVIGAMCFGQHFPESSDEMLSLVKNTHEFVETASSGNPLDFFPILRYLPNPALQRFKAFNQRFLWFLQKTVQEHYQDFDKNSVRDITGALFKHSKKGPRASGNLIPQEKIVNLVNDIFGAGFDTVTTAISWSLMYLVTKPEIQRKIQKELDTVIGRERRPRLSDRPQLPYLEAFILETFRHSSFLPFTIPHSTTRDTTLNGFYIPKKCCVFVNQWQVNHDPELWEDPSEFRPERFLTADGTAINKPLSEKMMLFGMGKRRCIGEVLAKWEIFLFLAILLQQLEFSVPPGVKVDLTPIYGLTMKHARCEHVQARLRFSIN
Description: as §1, §2, §3

CYP3A4 = molecular target: T3, CYP3A4 (Homo sapiens, UniProt P08684); experiment: as above; type: in vitro ADME; conditions: 10 μM compound, human liver microsomes 0.25 mg/mL, substrate midazolam, 15 minutes
T3 construct: human liver microsomes (0.25 mg/mL); from tissue; host or cells: human liver microsomes
Description: as §1, §2, §3

CYP2C9 = molecular target: T4, CYP2C9 (Homo sapiens, UniProt P11712); experiment: as above; type: in vitro ADME; conditions: 10 μM compound, human liver microsomes 0.25 mg/mL, substrate diclofenac, 15 minutes
T4 construct: human liver microsomes (0.25 mg/mL); from tissue; host or cells: human liver microsomes
Description: as §1, §2, §3

[1] = Liver microsome stability; type: in vitro ADME; conditions: 1 μM compound, 37° C., 30 minutes, NADPH; for Human (%) amount of substrate remaining after the reaction: human liver microsomes 0.25 mg/mL; for Mouse (%) amount of substrate remaining after the reaction: mouse liver microsomes 0.25 mg/mL; for Rat (%) amount of substrate remaining after the reaction: rat liver microsomes 0.25 mg/mL; for Dog (%) amount of substrate remaining after the reaction: dog liver microsomes 0.25 mg/mL
Description: The stability of liver microsomes due to the compounds prepared according to Examples 1 to 57 was confirmed. Specifically, four types of liver microsomes (human, dog, rat, and mouse, each 0.25 mg/mL), a 0.1 M phosphate buffer solution (pH 7.4), and each of the compounds at a concentration of 1 μM were mixed and pre-cultured at 37° C. for 5 minutes and further cultured at 37° C. for 30 minutes together with an NADPH generation system solution added thereto. Thereafter, the reaction was terminated by adding an acetonitrile solution containing an internal standard material (chloropropamide) and centrifuged for 5 minutes (14,000 rpm, 4° C.), and then a supernatant was injected into an LC-MS/MS system for analysis of substrate drugs to thereby evaluate metabolic stability due to 8 types of compounds.
The amount of the substrate remaining after the reaction was analyzed using the Shimadzu Nexera XR system and TSQ Vantage (Thermo). In an HPLC column, Kinetex XB-C18 (2.1 mm×100 mm, particle size of 2.6 μm; Phenomenex, USA) was used, and mobile phases were (A) distilled water containing 0.1% formic acid and (B) acetonitrile containing 0.1% formic acid. Analyst software (version 1.6.3) and Xcalibur (version 1.6.1) were used for data analysis.

Tau-BiFC cells = experiment: Cell viability (stained nuclei count) in Tau-BiFC cells; type: cell-based; conditions: 10 μM compound, 48 hours; Forskolin-only group = 100% cell viability
Description: In order to select novel tau protein aggregation-inhibiting substances, tau-BiFC cell model, in which formation of tau oligomers in living cells is easily observed, was used. Tau-BiFC cells were aliquoted into a 384-well plate. On the next day, the cells were treated with each of the compounds prepared according to Examples 1 to 57 at concentrations of 1 μM, 3 μM, and 10 μM, together with Forskolin (at a treatment concentration of 30 μM), which is a compound inducing tau protein aggregation by activating tau phosphorylase PKA. After 48 hours, nuclei in the cells were stained using Hoechst (at a treatment concentration of 2 μg/mL), and BiFC fluorescence intensity was automatically measured using Operetta (PerkinElmer) to count stained nuclei in each well out of the entire well plate. The group treated only with Forskolin, which induces tau protein aggregation, was set to a reference point of a 100% tau protein-aggregated state, and the effects of the compounds were confirmed using the equation “BiFC fluorescence intensity due to compound synthesized according to embodiment of present invention/(fluorescence intensity of control group treated only with Forskolin inducing tau protein aggregation−fluorescence intensity of untreated control group)×100”. Furthermore, the degree of cytotoxicity induced by the newly synthesized compound was also measured based on the 100% cell viability of the group treated only with Forskolin as a reference, and the cytotoxicity value of each compound was calculated using the equation “(number of stained nuclei in group treated with compound/number of stained nuclei in group treated with Forskolin)×100”. Based on the treatment results, substances inhibiting intracellular tau protein aggregation were selected from a series of candidate groups showing a tau protein aggregation inhibition rate of 70% or more and cell viability of 100% at a compound treatment concentration of 10 μM or more. […]

T3 sequence (P08684 whole entry): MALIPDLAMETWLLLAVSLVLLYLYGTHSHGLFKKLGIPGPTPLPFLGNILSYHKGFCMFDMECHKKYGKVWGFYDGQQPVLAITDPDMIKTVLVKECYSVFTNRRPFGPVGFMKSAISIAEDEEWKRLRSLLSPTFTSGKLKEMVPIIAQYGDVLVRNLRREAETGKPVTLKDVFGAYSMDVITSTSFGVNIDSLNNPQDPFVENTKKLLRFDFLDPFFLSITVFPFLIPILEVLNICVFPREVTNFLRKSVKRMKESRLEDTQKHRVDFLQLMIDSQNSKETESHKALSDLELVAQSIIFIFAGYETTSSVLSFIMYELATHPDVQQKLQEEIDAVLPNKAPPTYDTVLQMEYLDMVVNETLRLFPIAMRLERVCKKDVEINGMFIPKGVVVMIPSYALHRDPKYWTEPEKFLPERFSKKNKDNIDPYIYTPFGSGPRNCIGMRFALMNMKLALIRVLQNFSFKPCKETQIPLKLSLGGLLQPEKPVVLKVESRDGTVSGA
T1 sequence (P33261 whole entry): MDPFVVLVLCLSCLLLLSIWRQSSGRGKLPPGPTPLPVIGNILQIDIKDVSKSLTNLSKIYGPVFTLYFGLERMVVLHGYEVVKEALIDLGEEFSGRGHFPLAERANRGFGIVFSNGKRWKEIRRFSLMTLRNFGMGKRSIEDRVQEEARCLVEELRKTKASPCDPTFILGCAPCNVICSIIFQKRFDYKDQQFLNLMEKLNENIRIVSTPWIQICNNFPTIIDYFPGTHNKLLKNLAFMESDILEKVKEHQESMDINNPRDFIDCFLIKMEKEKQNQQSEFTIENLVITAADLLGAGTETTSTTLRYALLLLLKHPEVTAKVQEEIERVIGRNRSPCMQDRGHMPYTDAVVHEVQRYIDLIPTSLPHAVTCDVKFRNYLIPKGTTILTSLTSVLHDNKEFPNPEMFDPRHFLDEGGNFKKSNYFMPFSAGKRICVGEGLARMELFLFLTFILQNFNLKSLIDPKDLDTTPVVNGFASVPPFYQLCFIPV
T4 sequence (P11712 whole entry): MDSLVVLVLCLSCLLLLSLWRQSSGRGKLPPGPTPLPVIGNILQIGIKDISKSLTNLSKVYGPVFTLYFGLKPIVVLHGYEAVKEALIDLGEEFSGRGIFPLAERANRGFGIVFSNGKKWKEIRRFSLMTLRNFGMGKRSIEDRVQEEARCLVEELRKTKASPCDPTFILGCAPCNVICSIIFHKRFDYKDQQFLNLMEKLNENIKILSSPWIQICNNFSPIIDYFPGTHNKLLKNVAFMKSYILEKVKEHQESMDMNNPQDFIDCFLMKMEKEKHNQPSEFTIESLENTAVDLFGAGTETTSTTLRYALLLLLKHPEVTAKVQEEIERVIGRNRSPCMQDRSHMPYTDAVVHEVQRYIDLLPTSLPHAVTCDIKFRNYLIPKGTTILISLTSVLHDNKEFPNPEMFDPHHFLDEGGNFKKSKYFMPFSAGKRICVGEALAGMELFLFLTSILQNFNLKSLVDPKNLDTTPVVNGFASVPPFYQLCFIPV

Structure (SMILES) | CYP2C19 coenzyme activity (%) with respect to control group not treated (CYP2C19) [%] | CYP1A2 coenzyme activity (%) with respect to control group not treated (CYP1A2) [%] | CYP3A4 coenzyme activity (%) with respect to control group not treated (CYP3A4) [%] | CYP2C9 coenzyme activity (%) with respect to control group not treated (CYP2C9) [%] | Human (%) amount of substrate remaining after the reaction [1] [%] | Mouse (%) amount of substrate remaining after the reaction [1] [%] | Rat (%) amount of substrate remaining after the reaction [1] [%] | Cell viability (% @10 μM) (Tau-BiFC cells) [%] | Dog (%) amount of substrate remaining after the reaction [1] [%]
CC(C)n1c(=O)n(C2CC2)c2ncc(NN=C(C#N)C#N)cc21 [Compound 53, (3-cyclopropyl-1-isopropyl-2-oxo-2,3-dihydro-1H-imidazo[4,5-b]pyridin-6-yl)carbonohydrazonoyl dicyanide] | >100 | >100 | 97.8 | 75.3 | 84.6 | 83.5 | 82.1 | 125 | 
Cn1c(=O)oc2cc(NN=C(C#N)C#N)ccc21 [Compound 16, (3-methyl-2-oxo-2,3-dihydrobenzo[d]oxazol-6-yl)carbonohydrazonoyl dicyanide] | 90.8 | 91.5 | 99.8 | 54.9 | 98.9 | 81 | 89.1 | 129.8 | 95.7
Cn1c(=O)n(C)c2cc(NN=C(C#N)C#N)c(Cl)cc21 [Compound 10, (6-chloro-1,3-dimethyl-2-oxo-2,3-dihydro-1H-benzo[d]imidazol-5-yl)carbonohydrazonoyl dicyanide] | 94.6 | 94.2 | >100 | >100 | >100 | 92.6 | 92.7 | 145.3 | 98.1
CC(C)n1c(=O)n(C2CC2)c2ccc(NN=C(C#N)C#N)cc21 [Compound 42, (1-cyclopropyl-3-isopropyl-2-oxo-2,3-dihydro-1H-benzo[d]imidazol-5-yl)carbonohydrazonoyl dicyanide] | >100 | 91.9 | 93.5 | 59.6 | 81.7 | 63.4 | 78.7 | 124 | 
N#CC(C#N)=NNc1ccc2c(c1)sc(=O)n2C(F)F [Compound 19, (3-(difluoromethyl)-2-oxo-2,3-dihydrobenzo[d]thiazol-6-yl)carbonohydrazonoyl dicyanide] | 75.7 | 52.5 | 81.8 | 23.3 | 99.7 | 58.7 | 69.7 | 125.3 | 80.4
CCn1c(=O)n(C)c2cc(NN=C(C#N)C#N)cnc21 [Compound 48, (3-ethyl-1-methyl-2-oxo-2,3-dihydro-1H-imidazo[4,5-b]pyridin-6-yl)carbonohydrazonoyl dicyanide] | >100 | >100 | >100 | >100 | 96.7 | >100 | 96.3 | 143 | 
CC(C)n1c(=O)oc2cc(NN=C(C#N)C#N)ccc21 [Compound 20, (3-isopropyl-2-oxo-2,3-dihydrobenzo[d]oxazol-6-yl)carbonohydrazonoyl dicyanide] | 85.7 | 87.3 | 98.8 | 32.3 | 98.1 | 73.1 | 73.3 | 106 | 95.6
Cn1c(=O)[nH]c2cc(NN=C(C#N)C#N)ccc21 [Compound 17, (1-methyl-2-oxo-2,3-dihydro-1H-benzo[d]imidazol-5-yl)carbonohydrazonoyl dicyanide] | 80.4 | 32.1 | 89 | 81.2 | >100 | 95.7 | >100 | 94.38 | >100

— patent US12590066B2, “Fused-heterocyclyl-carbonohydrazonoyl dicyanide compounds and use thereof” (KOREA INSTITUTE OF SCIENCE AND TECHNOLOGY, priority 2020, dated 2026)
